Assay results from patent US11446287B2, “Compounds and methods for EP300 or CBP modulation and indications therefor” (Opna Immuno-Oncology SA, priority 2019, dated 2022).

Molecular target: T1, Recombinant human CBP containing the bromodomain (CBP-BD (1043-1159)) (Homo sapiens, UniProt Q92793)
T1 construct: Recombinant human CBP bromodomain (CBP-BD (1043-1159)); made in house; host or cells: E. coli BL21-CodonPlus (DE3), modified pET vector
Assay: CBP Alphascreen binding assay
Conditions: read-out: CREBBP (CBP) IC50
In short: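 Buffer: 50 mM HEPES pH 7.5, 50 mM NaCl, 0.01% BSA, 0.01% Triton X-100, 2 mM DTT. The signal was normalised to plate controls and fitted with a four-parameter curve to give IC50.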

T1 sequence (Q92793 1081-1197): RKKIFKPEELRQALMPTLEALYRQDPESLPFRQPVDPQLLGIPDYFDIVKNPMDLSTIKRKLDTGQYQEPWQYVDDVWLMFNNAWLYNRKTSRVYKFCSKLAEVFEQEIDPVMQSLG

Row | SMILES | IC50
1 | Cc1noc(C)c1-c1cnc2c(c1)c(-c1cnn(C(C)(C)C(=O)O)c1)cn2C(c1ccccn1)C1CCCC1 (centres unmarked) [P-0035, 2-(4-(1-(cyclopentyl(pyridin-2-yl)methyl)-5-(3,5-dimethylisoxazol-4-yl)-1H-pyrrolo[2,3-b]pyridin-3-yl)-1H-pyrazol-1-yl)-2-methylpropanoic acid] | 0.1 to 1000 nM
2 | Cc1noc(C)c1-c1cnc2c(c1)c(-c1cnn(CC(=O)O)c1)cn2C(c1ccccn1)C1CCCC1 (centres unmarked) [P-0036, 2-(4-(1-(cyclopentyl(pyridin-2-yl)methyl)-5-(3,5-dimethylisoxazol-4-yl)-1H-pyrrolo[2,3-b]pyridin-3-yl)-1H-pyrazol-1-yl)acetic acid] | 0.1 to 1000 nM
3 | Cc1noc(C)c1-c1cnc2c(c1)c(-c1cnn(CC(C)(C)O)c1)cn2C(c1ccccn1)C1CCCC1 (centres unmarked) [P-0037, 1-(4-(1-(cyclopentyl(pyridin-2-yl)methyl)-5-(3,5-dimethylisoxazol-4-yl)-1H-pyrrolo[2,3-b]pyridin-3-yl)-1H-pyrazol-1-yl)-2-methylpropan-2-ol] | 1000 to 8000 nM
4 | Cc1noc(C)c1-c1cnc2c(c1)c(-c1ccc(C(=O)O)c(Cl)c1)cn2C(c1ccccn1)C1CCCC1 (centres unmarked) [P-0038, 2-chloro-4-(1-(cyclopentyl(pyridin-2-yl)methyl)-5-(3,5-dimethylisoxazol-4-yl)-1H-pyrrolo[2,3-b]pyridin-3-yl)benzoic acid] | 0.1 to 1000 nM
5 | COC(=O)c1cc(-c2cn(C(c3ccccn3)C3CCCC3)c3ncc(-c4c(C)noc4C)cc23)ccn1 (centres unmarked) [P-0040, methyl 4-(1-(cyclopentyl(pyridin-2-yl)methyl)-5-(3,5-dimethylisoxazol-4-yl)-1H-pyrrolo[2,3-b]pyridin-3-yl)picolinate] | 0.1 to 1000 nM
6 | Cc1noc(C)c1-c1cnc2c(c1)c(-c1ccnc(C(=O)O)c1)cn2C(C1CC1)C1CC1 [P-0041, 4-(1-(dicyclopropylmethyl)-5-(3,5-dimethylisoxazol-4-yl)-1H-pyrrolo[2,3-b]pyridin-3-yl)picolinic acid] | 0.1 to 1000 nM
7 | Cc1noc(C)c1-c1cnc2c(c1)c(-c1ccnc(C(=O)O)c1)cn2Cc1ccccc1 [P-0042, 4-(1-benzyl-5-(3,5-dimethylisoxazol-4-yl)-1H-pyrrolo[2,3-b]pyridin-3-yl)picolinic acid] | 0.1 to 1000 nM
8 | Cc1noc(C)c1-c1cnc2c(c1)c(-c1ccnc(C(=O)O)c1)cn2C(c1ccccn1)C1CCC1 (centres unmarked) [P-0043, 4-(1-(cyclobutyl(pyridin-2-yl)methyl)-5-(3,5-dimethylisoxazol-4-yl)-1H-pyrrolo[2,3-b]pyridin-3-yl)picolinic acid] | 0.1 to 1000 nM
9 | Cc1noc(C)c1-c1cnc2c(c1)c(-c1ccnc(C(=O)O)c1)cn2Cc1ccccn1 [P-0044, 4-(5-(3,5-dimethylisoxazol-4-yl)-1-(pyridin-2-ylmethyl)-1H-pyrrolo[2,3-b]pyridin-3-yl)picolinic acid] | 0.1 to 1000 nM
10 | Cc1noc(C)c1-c1cnc2c(c1)c(-c1ccnc(C(=O)O)c1)cn2CC1CC1 [P-0045, 4-(1-(cyclopropylmethyl)-5-(3,5-dimethylisoxazol-4-yl)-1H-pyrrolo[2,3-b]pyridin-3-yl)picolinic acid] | 0.1 to 1000 nM
11 | COC(=O)c1cc(-c2cn(C(c3ccccn3)C3CCC3)c3ncc(-c4c(C)noc4C)cc23)ccn1 (centres unmarked) [P-0046, methyl 4-(1-(cyclobutyl(pyridin-2-yl)methyl)-5-(3,5-dimethylisoxazol-4-yl)-1H-pyrrolo[2,3-b]pyridin-3-yl)picolinate] | 0.1 to 1000 nM
12 | COc1cc(C(=O)O)ccc1-c1cn([C@@H](C)c2ccccn2)c2ncc(-c3c(C)noc3C)cc12 [P-0047, (S)-4-(5-(3,5-dimethylisoxazol-4-yl)-1-(1-(pyridin-2-yl)ethyl)-1H-pyrrolo[2,3-b]pyridin-3-yl)-3-methoxybenzoic acid] | 0.1 to 1000 nM
13 | Cc1noc(C)c1-c1cnc2c(c1)c(-c1cccc(C(=O)O)c1)cn2Cc1ccccc1 [P-0048, 3-(1-benzyl-5-(3,5-dimethylisoxazol-4-yl)-1H-pyrrolo[2,3-b]pyridin-3-yl)benzoic acid] | 0.1 to 1000 nM
14 | Cc1noc(C)c1-c1cnc2c(c1)c(-c1cccc(C(=O)O)c1)cn2Cc1ccccn1 [P-0049, 3-(5-(3,5-dimethylisoxazol-4-yl)-1-(pyridin-2-ylmethyl)-1H-pyrrolo[2,3-b]pyridin-3-yl)benzoic acid] | 0.1 to 1000 nM
15 | Cc1noc(C)c1-c1cnc2c(c1)c(-c1cccc(C(=O)O)c1)cn2CC1CC1 [P-0050, 3-(1-(cyclopropylmethyl)-5-(3,5-dimethylisoxazol-4-yl)-1H-pyrrolo[2,3-b]pyridin-3-yl)benzoic acid] | 0.1 to 1000 nM
16 | Cc1noc(C)c1-c1cnc2c(c1)c(C#CC(C)(C)C(=O)O)cn2Cc1ccccc1 [P-0051, 4-(1-benzyl-5-(3,5-dimethylisoxazol-4-yl)-1H-pyrrolo[2,3-b]pyridin-3-yl)-2,2-dimethylbut-3-ynoic acid] | 0.1 to 1000 nM

Row | SMILES | IC50
17 | COC(=O)c1cc(-n2cc(Cc3ccccc3)c3ncc(-c4c(C)noc4C)cc32)ccn1 [P-0052, methyl 4-(3-benzyl-6-(3,5-dimethylisoxazol-4-yl)-1H-pyrrolo[3,2-b]pyridin-1-yl)picolinate] | 0.1 to 1000 nM
18 | Cc1noc(C)c1-c1cnc2c(Cc3ccccc3)cn(-c3ccnc(C(=O)O)c3)c2c1 [P-0053, 4-(3-benzyl-6-(3,5-dimethylisoxazol-4-yl)-1H-pyrrolo[3,2-b]pyridin-1-yl)picolinic acid] | 0.1 to 1000 nM
19 | Cc1noc(C)c1-c1cnc2c(C(=O)c3ccccc3)cn(-c3ccnc(C(=O)O)c3)c2c1 [P-0054, 4-(3-benzoyl-6-(3,5-dimethylisoxazol-4-yl)-1H-pyrrolo[3,2-b]pyridin-1-yl)picolinic acid] | 0.1 to 1000 nM
20 | Cc1noc(C)c1-c1cnc2c(c1)c(-c1ccc(C(=O)O)cc1OC(F)(F)F)cn2-c1ccc(C2CC2)nc1 [P-0388, 4-(1-(6-cyclopropylpyridin-3-yl)-5-(3,5-dimethylisoxazol-4-yl)-1H-pyrrolo[2,3-b]pyridin-3-yl)-3-(trifluoromethoxy)benzoic acid] | 0.1 to 1000 nM
21 | Cc1noc(C)c1-c1cnc2c(c1)c(-c1ccc(C(=O)O)cc1OC(F)(F)F)cn2C1CCC(C#N)C1 (centres unmarked) [P-0389, 4-(1-(3-cyanocyclopentyl)-5-(3,5-dimethylisoxazol-4-yl)-1H-pyrrolo[2,3-b]pyridin-3-yl)-3-(trifluoromethoxy)benzoic acid] | 0.1 to 1000 nM
22 | Cc1noc(C)c1-c1cnc2c(c1)c(-c1c(Cl)cc(C(=O)O)cc1OCC(F)F)cn2-c1cnc(C2CC2)nc1 [P-0390, 3-chloro-4-(1-(2-cyclopropylpyrimidin-5-yl)-5-(3,5-dimethylisoxazol-4-yl)-1H-pyrrolo[2,3-b]pyridin-3-yl)-5-(2,2-difluoroethoxy)benzoic acid] | 0.1 to 1000 nM
23 | Cc1noc(C)c1-c1cnc2c(c1)c(-c1c(Cl)cc(C(=O)O)cc1OC1CCC1)cn2-c1cnc(C2CC2)nc1 [P-0391, 3-chloro-5-cyclobutoxy-4-(1-(2-cyclopropylpyrimidin-5-yl)-5-(3,5-dimethylisoxazol-4-yl)-1H-pyrrolo[2,3-b]pyridin-3-yl)benzoic acid] | 0.1 to 1000 nM
24 | COc1ncc(-n2cc(-c3ccc(C(=O)O)cc3OC(F)(F)F)c3cc(-c4c(C)noc4C)cnc32)cn1 [P-0392, 4-(5-(3,5-dimethylisoxazol-4-yl)-1-(2-methoxypyrimidin-5-yl)-1H-pyrrolo[2,3-b]pyridin-3-yl)-3-(trifluoromethoxy)benzoic acid] | 0.1 to 1000 nM
25 | Cc1noc(C)c1-c1cnc2c(c1)c(-c1c(Cl)cc(C(=O)O)cc1OC(C)C)cn2-c1cnc(C2CC2)nc1 [P-0393, 3-chloro-4-(1-(2-cyclopropylpyrimidin-5-yl)-5-(3,5-dimethylisoxazol-4-yl)-1H-pyrrolo[2,3-b]pyridin-3-yl)-5-isopropoxybenzoic acid] | 0.1 to 1000 nM
26 | Cc1noc(C)c1-c1cnc2c(c1)c(-c1c(F)cc(C(=O)O)cc1OC1CC1)cn2C(C1CC1)C1CC1 [P-0394, 3-cyclopropoxy-4-(1-(dicyclopropylmethyl)-5-(3,5-dimethylisoxazol-4-yl)-1H-pyrrolo[2,3-b]pyridin-3-yl)-5-fluorobenzoic acid] | 0.1 to 1000 nM
27 | Cc1noc(C)c1-c1cnc2c(c1)c(-c1c(Cl)cc(C(=O)O)cc1OC(F)(F)F)cn2-c1ncccc1C#N [P-0395, 3-chloro-4-(1-(3-cyanopyridin-2-yl)-5-(3,5-dimethylisoxazol-4-yl)-1H-pyrrolo[2,3-b]pyridin-3-yl)-5-(trifluoromethoxy)benzoic acid] | 0.1 to 1000 nM
28 | Cc1noc(C)c1-c1cnc2c(c1)c(-c1c(Cl)cc(C(=O)O)cc1OC1CCC1)cn2-c1ncccc1C#N [P-0396, 3-chloro-4-(1-(3-cyanopyridin-2-yl)-5-(3,5-dimethylisoxazol-4-yl)-1H-pyrrolo[2,3-b]pyridin-3-yl)-5-cyclobutoxybenzoic acid] | 0.1 to 1000 nM
29 | Cc1noc(C)c1-c1cnc2c(c1)c(-c1c(F)cc(C(=O)O)cc1OC1CC1)cn2C1CCOCC1 [P-0397, 3-cyclopropoxy-4-(5-(3,5-dimethylisoxazol-4-yl)-1-(tetrahydro-2H-pyran-4-yl)-1H-pyrrolo[2,3-b]pyridin-3-yl)-5-fluorobenzoic acid] | 0.1 to 1000 nM
30 | CCOc1nc(C(=O)O)c(Cl)cc1-c1cn(C2CCOCC2)c2ncc(-c3c(C)noc3C)cc12 [P-0398, 3-chloro-5-(5-(3,5-dimethylisoxazol-4-yl)-1-(tetrahydro-2H-pyran-4-yl)-1H-pyrrolo[2,3-b]pyridin-3-yl)-6-ethoxypicolinic acid] | 0.1 to 1000 nM
31 | Cc1noc(C)c1-c1cnc2c(c1)c(-c1ccc(C(=O)O)cc1OC(F)(F)F)cn2-c1ccc(=O)n(C)c1 [P-0399, 4-(5-(3,5-dimethylisoxazol-4-yl)-1-(1-methyl-6-oxo-1,6-dihydropyridin-3-yl)-1H-pyrrolo[2,3-b]pyridin-3-yl)-3-(trifluoromethoxy)benzoic acid] | 0.1 to 1000 nM
32 | CCc1noc(C)c1-c1cnc2c(c1)c(-c1ccc(C(=O)O)cc1OC(F)(F)F)cn2C1CCOCC1 [P-0400, 4-(5-(3-ethyl-5-methylisoxazol-4-yl)-1-(tetrahydro-2H-pyran-4-yl)-1H-pyrrolo[2,3-b]pyridin-3-yl)-3-(trifluoromethoxy)benzoic acid] | 0.1 to 1000 nM
